Experimental data reported in ChEMBL document CHEMBL6127139, “Lysine-Targeted Covalent Inhibitors of PI3Kδ Synthesis and Screening by In Situ Interaction Upgradation” (J Med Chem, 2024).
Activity calls are given as the source filed them. The calls are words filed in the database; no cut-off is given here.

Key:
SU-DHL-6 [1] = experiment: Induction of apoptosis in human SU-DHL-6 cells assessed as early apoptotic cells at 1 uM incubated for 48 hrs by Annexin V-FITC/PI staining based flow cytometric analysis (reference value: 5.02 %); type: functional
[2] = Selectivity index, ratio of IC50 for inhibition of recombinant PI3Kalpha (unknown origin) using PIP2:3PS as substrate to IC50 for inhibition of recombinant PI3Kdelta (unknown origin) using PIP2:3PS as substrate
SU-DHL-6 [3] = experiment: Induction of apoptosis in human SU-DHL-6 cells assessed as necrotic cells at 0.1 uM incubated for 48 hrs by Annexin V-FITC/PI staining based flow cytometric analysis (reference value: 1.05 %); type: functional
SU-DHL-6 [4] = experiment: Potency index, ratio of idelalisib GI50 to test compound GI50 for growth inhibition of PI3Kdelta-overexpressing human SU-DHL-6 cells incubated for 72 hrs by MTT assay; type: functional
[5] = Stability of compound in water/acetonitrile solution incubated for 24 hrs by HPLC analysis; type: physicochemical; settings: buffer
SU-DHL-6 [6] = experiment: Irreversible inhibition of AKT phosphorylation in human SU-DHL-6 cells preincubated for 12 hrs followed by compound washout and measured upto 72 hrs by Western blot analysis; type: cell-based
[7] = target: T1, Phosphatidylinositol 4,5-bisphosphate 3-kinase catalytic subunit delta isoform (Homo sapiens, UniProt O00329); experiment: Inhibition of recombinant PI3Kdelta (unknown origin) using PIP2:3PS as substrate preincubated for 20 mins followed by ATP addition and measured after 1 hrs by ADP-Glo reagent based assay
T1 sequence (O00329 whole entry): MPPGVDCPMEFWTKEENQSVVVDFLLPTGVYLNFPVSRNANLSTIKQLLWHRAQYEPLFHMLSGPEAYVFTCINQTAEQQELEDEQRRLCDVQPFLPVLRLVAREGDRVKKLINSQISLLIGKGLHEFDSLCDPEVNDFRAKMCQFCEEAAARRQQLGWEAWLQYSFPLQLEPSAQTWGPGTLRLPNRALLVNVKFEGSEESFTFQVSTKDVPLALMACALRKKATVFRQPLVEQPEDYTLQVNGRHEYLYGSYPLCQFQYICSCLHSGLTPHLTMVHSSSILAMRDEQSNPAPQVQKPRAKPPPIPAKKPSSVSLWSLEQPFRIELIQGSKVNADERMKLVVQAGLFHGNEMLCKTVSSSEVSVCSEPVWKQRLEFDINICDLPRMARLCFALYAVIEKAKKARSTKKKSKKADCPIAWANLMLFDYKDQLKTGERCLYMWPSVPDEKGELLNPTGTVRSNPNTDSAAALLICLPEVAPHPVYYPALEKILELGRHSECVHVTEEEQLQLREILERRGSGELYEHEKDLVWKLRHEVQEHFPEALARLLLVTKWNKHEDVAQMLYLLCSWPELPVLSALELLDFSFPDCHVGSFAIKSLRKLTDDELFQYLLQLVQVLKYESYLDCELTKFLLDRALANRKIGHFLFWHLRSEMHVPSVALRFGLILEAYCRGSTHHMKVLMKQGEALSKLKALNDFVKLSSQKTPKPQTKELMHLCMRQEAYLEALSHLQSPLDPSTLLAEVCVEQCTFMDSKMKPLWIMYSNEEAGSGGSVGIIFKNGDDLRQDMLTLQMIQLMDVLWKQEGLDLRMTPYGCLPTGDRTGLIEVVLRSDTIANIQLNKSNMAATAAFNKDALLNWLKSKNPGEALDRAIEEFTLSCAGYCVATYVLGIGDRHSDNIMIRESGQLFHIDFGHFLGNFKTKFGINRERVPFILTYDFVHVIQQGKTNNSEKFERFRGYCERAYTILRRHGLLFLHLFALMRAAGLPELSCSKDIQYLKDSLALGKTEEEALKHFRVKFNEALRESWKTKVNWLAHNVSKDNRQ

[8] = target: Phosphatidylinositol 4,5-bisphosphate 3-kinase catalytic subunit beta isoform (Homo sapiens, UniProt P42338); experiment: Inhibition of recombinant PI3Kbeta (unknown origin) using PIP2:3PS as substrate preincubated for 20 mins followed by ATP addition and measured after 1 hrs by ADP-Glo reagent based assay
Sequence of Phosphatidylinositol 4,5-bisphosphate 3-kinase catalytic subunit beta isoform (P42338 whole entry, canonical isoform): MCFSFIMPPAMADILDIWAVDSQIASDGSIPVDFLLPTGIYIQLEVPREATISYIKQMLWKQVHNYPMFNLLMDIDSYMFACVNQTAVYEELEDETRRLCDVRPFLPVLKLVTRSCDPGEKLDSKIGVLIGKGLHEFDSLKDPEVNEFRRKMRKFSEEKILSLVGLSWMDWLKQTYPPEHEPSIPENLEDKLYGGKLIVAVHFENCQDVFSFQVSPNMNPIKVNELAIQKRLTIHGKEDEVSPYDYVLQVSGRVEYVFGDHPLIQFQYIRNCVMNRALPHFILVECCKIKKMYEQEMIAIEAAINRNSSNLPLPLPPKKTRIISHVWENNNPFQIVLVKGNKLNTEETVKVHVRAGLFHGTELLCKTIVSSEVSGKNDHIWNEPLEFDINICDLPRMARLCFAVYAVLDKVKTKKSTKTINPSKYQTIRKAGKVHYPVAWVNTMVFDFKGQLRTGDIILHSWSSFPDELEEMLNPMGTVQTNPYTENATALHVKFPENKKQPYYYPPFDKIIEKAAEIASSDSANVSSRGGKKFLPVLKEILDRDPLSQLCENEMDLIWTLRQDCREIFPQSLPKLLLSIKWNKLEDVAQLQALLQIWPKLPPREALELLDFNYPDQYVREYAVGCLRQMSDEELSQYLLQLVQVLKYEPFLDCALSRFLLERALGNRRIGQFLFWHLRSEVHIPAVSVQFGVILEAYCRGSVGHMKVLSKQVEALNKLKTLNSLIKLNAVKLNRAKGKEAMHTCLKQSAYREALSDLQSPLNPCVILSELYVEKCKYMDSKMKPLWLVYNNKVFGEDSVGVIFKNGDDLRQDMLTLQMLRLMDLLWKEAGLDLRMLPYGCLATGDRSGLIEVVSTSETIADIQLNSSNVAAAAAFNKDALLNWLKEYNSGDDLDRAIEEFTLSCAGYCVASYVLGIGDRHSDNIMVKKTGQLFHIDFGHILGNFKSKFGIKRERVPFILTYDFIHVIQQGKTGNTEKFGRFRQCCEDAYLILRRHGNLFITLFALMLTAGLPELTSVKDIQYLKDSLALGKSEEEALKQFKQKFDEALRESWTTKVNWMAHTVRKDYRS

SU-DHL-6 [9] = experiment: Induction of apoptosis in human SU-DHL-6 cells assessed as necrotic cells at 1 uM incubated for 48 hrs by Annexin V-FITC/PI staining based flow cytometric analysis (reference value: 1.05 %); type: functional
[10] = target: Phosphatidylinositol 4,5-bisphosphate 3-kinase catalytic subunit alpha isoform (Homo sapiens, UniProt P42336); experiment: Inhibition of recombinant PI3Kalpha (unknown origin) using PIP2:3PS as substrate preincubated for 20 mins followed by ATP addition and measured after 1 hrs by ADP-Glo reagent based assay
Sequence of Phosphatidylinositol 4,5-bisphosphate 3-kinase catalytic subunit alpha isoform (P42336 whole entry, canonical isoform): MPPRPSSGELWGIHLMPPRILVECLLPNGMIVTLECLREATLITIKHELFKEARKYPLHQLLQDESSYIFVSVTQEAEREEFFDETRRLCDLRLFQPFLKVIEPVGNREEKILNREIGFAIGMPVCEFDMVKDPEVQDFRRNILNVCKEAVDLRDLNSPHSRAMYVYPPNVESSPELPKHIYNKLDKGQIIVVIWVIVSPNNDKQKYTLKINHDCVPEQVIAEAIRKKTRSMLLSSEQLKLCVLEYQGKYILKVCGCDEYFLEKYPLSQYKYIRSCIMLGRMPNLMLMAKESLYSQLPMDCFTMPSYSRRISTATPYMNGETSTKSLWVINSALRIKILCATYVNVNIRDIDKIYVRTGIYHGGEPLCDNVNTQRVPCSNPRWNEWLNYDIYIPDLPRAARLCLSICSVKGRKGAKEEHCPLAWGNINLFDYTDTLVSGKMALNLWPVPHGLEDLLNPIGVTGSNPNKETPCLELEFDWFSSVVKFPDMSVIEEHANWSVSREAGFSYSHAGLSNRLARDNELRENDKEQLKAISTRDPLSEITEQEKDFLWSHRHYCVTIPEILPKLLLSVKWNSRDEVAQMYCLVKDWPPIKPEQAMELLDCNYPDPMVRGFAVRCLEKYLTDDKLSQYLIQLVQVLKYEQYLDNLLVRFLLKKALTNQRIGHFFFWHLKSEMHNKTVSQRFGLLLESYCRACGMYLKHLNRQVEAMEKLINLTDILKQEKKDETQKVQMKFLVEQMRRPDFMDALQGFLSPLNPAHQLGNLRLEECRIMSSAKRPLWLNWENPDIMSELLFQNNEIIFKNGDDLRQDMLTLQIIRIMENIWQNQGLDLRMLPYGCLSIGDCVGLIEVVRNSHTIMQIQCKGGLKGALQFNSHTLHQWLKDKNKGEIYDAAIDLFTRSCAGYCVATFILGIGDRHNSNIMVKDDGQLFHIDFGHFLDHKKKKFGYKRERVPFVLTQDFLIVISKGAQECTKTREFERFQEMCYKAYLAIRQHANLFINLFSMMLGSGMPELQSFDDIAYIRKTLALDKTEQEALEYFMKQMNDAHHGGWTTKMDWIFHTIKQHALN

SU-DHL-6 [11] = experiment: Induction of cell cycle arrest in human SU-DHL-6 cells assessed as increase in G0/G1 phase cells incubated for 24 hrs by PI staining based flow cytometric analysis; type: functional; settings: dose 1-100 nM
SU-DHL-6 [12] = experiment: Inhibition of AKT phosphorylation in human SU-DHL-6 cells incubated for 24 hrs by Western blot analysis; type: cell-based; settings: dose 10-1000 nM
Mus musculus = experiment: In vivo inhibition of PI3K signaling pathway in male nude mouse xenografted with human SU-DHL-6 cells assessed as reduction in AKT phosphorylation in tumor at 5 to 30 mg/kg/day, po administered for 14 days by Western blot analysis; type: functional, organism-based; settings: dose 5-30 mg/kg/day, time 14.0 day
SU-DHL-6 [13] = experiment: Antitumor activity against human SU-DHL-6 cells xenografted in male nude mouse assessed as tumor growth inhibition at 30 mg/kg/day, po administered for 14 days relative to control; type: functional; settings: SU-DHL-6, 336 h, time 14 day, read-out: TGI
SU-DHL-6 [14] = experiment: Induction of apoptosis in human SU-DHL-6 cells assessed as late apoptotic cells at 0.01 uM incubated for 48 hrs by Annexin V-FITC/PI staining based flow cytometric analysis (reference value: 4.12 %); type: functional
SU-DHL-6 [15] = experiment: Induction of apoptosis in human SU-DHL-6 cells assessed as early apoptotic cells at 0.01 uM incubated for 48 hrs by Annexin V-FITC/PI staining based flow cytometric analysis (reference value: 5.02 %); type: functional
[16] = Growth inhibition of PI3Kdelta-overexpressing human Pfeiffer cells incubated for 72 hrs by MTT assay; type: functional
SU-DHL-6 [17] = experiment: Induction of apoptosis in human SU-DHL-6 cells assessed as necrotic cells at 0.01 uM incubated for 48 hrs by Annexin V-FITC/PI staining based flow cytometric analysis (reference value: 1.05 %); type: functional
[18] = Chemical reactivity of the compound with N-Boc-Lysine assessed as half-life at 1 uM by HPLC analysis; type: physicochemical; settings: incubation with N-Boc-Lysine
SU-DHL-6 [19] = experiment: Antitumor activity against human SU-DHL-6 cells xenografted in male nude mouse assessed as reduction in Ki67 expression in tumor at 5 to 30 mg/kg/day, po administered for 14 days by immunohistochemical staining based analysis; type: functional, organism-based; settings: dose 5-30 mg/kg/day, time 14.0 day
[20] = target: T2, Phosphatidylinositol 4,5-bisphosphate 3-kinase catalytic subunit delta isoform (Homo sapiens) (UniProt O00329); experiment: Binding affinity to PI3Kdelta in human SU-DHL-6 cells preincubated for 1 hrs followed by (S)-phenyl 5-(4-((1-(1-(3-azidopropanoyl)piperidine-4-carbonyl)pyrrolidin-3-yl)amino)pyrido[3,2-d]pyrimidin-6-yl)-2-methoxynicotinate addition and measured after 2 hrs by DBCO-Cy3 based SDS-PAGE analysis; type: cell-based; settings: time 3.0 hrs
T2 sequence (whole entry): T1 sequence (O00329 whole entry)

Ratio IC50 [2]: > 1000 | Stability [5]: Stable | IC50 [7]: 0.27 nM | IC50 [8]: 203 nM | IC50 [10]: 610 nM | half-life at 1 µM [18]: 2.82 h | Activity [20]: Active
SMILES: COc1ncc(-c2ccc3ncnc(N[C@H]4CCN(C(=O)C5CCOCC5)C4)c3n2)cc1C(=O)Oc1ccccc1
Activity (SU-DHL-6 [1]): 63.74% | Activity (SU-DHL-6 [3]): 0.92% | RatioGI50 (SU-DHL-6 [4]): ~10 | inhibition (SU-DHL-6 [6]): Active | Activity (SU-DHL-6 [9]): 1.57% | Activity (SU-DHL-6 [11]): Dose-Dependent Effect | inhibition (SU-DHL-6 [12]): Dose-Dependent Effect | inhibition (Mus musculus): Active | inhibition in vivo at 30 mg/kg/day (SU-DHL-6 [13]): 95% | Activity (SU-DHL-6 [14]): 4.19% | Activity (SU-DHL-6 [15]): 10.3% | GI50 [16]: 102 nM | Activity (SU-DHL-6 [17]): 0.52% | Activity (SU-DHL-6 [19]): Active
